This note sets out measurements from US11225505B2, “Antimicrobial polymyxin derivative compounds” (MONASH UNIVERSITY, priority 2015, dated 2022).

What all share (format): cell-based
In experiment [1] the test system is Acinetobacter baumannii FADDI-AB030. The experiment is described as follows: microbe, parasite or virus in culture. As to conditions: FADDI-AB030. Summed up:
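Broth microdilution MIC in cation-adjusted Mueller-Hinton broth per CLSI M100-S24; lipopeptides tested as TFA salts. FADDI-AB030 is a multidrug-resistant clinical isolate. Polymyxin B sulphate served as control.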

Experiment [2] concerns Pseudomonas aeruginosa ATCC 27853. As to conditions: ATCC 27853. Put shortly: (§1)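 The read-out is the MIC, obtained by CLSI broth microdilution (M100-S24) in cation-adjusted Mueller-Hinton broth. The compounds were lipopeptide TFA salts, and polymyxin B sulphate served as control.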
The test system of experiment [3] is Klebsiella pneumoniae Kp BM1. As to conditions: Kp BM1. Summed up: (§2)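 MICs were determined by broth microdilution in cation-adjusted Mueller-Hinton broth following the CLSI M100-S24 protocol. Lipopeptides were tested as trifluoroacetic acid salts against polymyxin-susceptible Gram-negative strains, with polymyxin B sulphate as control. FADDI-PA022 and FADDI-AB034 are multidrug-resistant clinical isolates.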

For experiment [4], the system named is Enterobacter cloacae FADDI-EC006. As to conditions: FADDI-EC006. Summed up: as §1
Experiment [5] concerns Pseudomonas aeruginosa FADDI-PA022. As to conditions: FADDI-PA022. Summed up:
as §1

The subject of experiment [6] is Pseudomonas aeruginosa FADDI-PA01. As to conditions: FADDI-. Summed up: as §1
In experiment [7] the test system is Acinetobacter baumannii ATCC 17978. As to conditions: ATCC 17978. Summed up:
as §1

The test system of experiment [8] is Klebsiella pneumoniae FADDI-KP032. As to conditions: FADDI-KP032. Put shortly:
as §1

In experiment [9] the test system is Acinetobacter baumannii FADDI-AB034. As to conditions: FADDI-AB034. Put shortly:
as §1

Experiment [10] deals with Enterobacter cloacae FADDI-EC001. As to conditions: FADDI-EC001. Summed up:
as §2

Experiment [11] has as its system Enterobacter cloacae FADDI-EC003. As to conditions: FADDI-EC003. Put shortly:
as §1

The subject of experiment [12] is Pseudomonas aeruginosa FADDI-PA038. As to conditions: FADDI-PA038. Put shortly:
as §1

The subject of experiment [13] is Klebsiella pneumoniae FADDI-KP022. As to conditions: FADDI-KP022. Summed up: as §1

Values after ≈ are worked out from the molar mass of the structure shown. Where a SMILES comes first, the peptide text is derived from it. Bridges are numbered along the chain shown (N, C = ends). [ ]: non-standard residue; d: D form. The star is where a group is joined. X64 = O=C(c1noc(-c2ccccc2)n1)*; X50 = O=C(c1sc(Br)cc1Br)*; X67 = O=C(c1cc(Br)sc1Br)*; dNva = CCC[C@@H](N)C(=O)O; X26 = CCc1ccc(C(=O)*)cn1; X29 = O=C(c1cc(Cl)ccn1)*; X33 = O=C(c1cncc(Br)c1)*; Dab = NCC[C@H](N)C(=O)O; X70 = O=C(c1csc(Br)c1)*; Abu = CC[C@H](N)C(=O)O; Dap = NC[C@H](N)C(=O)O

Regarding `CCC[C@H]1NC(=O)[C@H](CCN)NC(=O)[C@@H](NC(=O)[C@H](CN)NC(=O)[C@@H](NC(=O)[C@H](CCN)NC(=O)c2cc(Cl)ccn2)[C@@H](C)O)CCNC(=O)[C@H]([C@@H](C)O)NC(=O)[C@H](CCN)NC(=O)[C@H](CCN)NC(=O)[C@H](CC)NC1=O` [Compound 96] (X29-[Dab]T[Dap][Dab][Dab][dNva][Abu][Dab][Dab]T; lactam 4-C), the Minimum inhibitory concentration in experiment [1] turned out to be 2 µg/mL (≈ 1.8 µM); in experiment [2], 0.25 µg/mL (≈ 0.225 µM); in experiment [3], 1 µg/mL (≈ 0.899 µM); in experiment [4] it was 0.5 µg/mL (≈ 0.449 µM); in [5], 0.25 µg/mL (≈ 0.225 µM); in [6], 0.25 µg/mL (≈ 0.225 µM). Further, the Minimum inhibitory concentration came to 1 µg/mL (≈ 0.899 µM) in experiment [7]; 0.5 µg/mL (≈ 0.449 µM) in experiment [8]; 1 µg/mL (≈ 0.899 µM) in [9]; 0.25 µg/mL (≈ 0.225 µM) in [10]; 0.5 µg/mL (≈ 0.449 µM) in experiment [11]; 1 µg/mL (≈ 0.899 µM) in experiment [12]. In addition, the Minimum inhibitory concentration in [13] was found to be 0.25 µg/mL (≈ 0.225 µM).

As for `CC[C@@H]1NC(=O)[C@@H](CC(C)C)NC(=O)[C@H](CCN)NC(=O)[C@@H](NC(=O)[C@H](CN)NC(=O)[C@@H](NC(=O)[C@H](CCN)NC(=O)c2noc(-c3ccccc3)n2)[C@@H](C)O)CCNC(=O)[C@H]([C@@H](C)O)NC(=O)[C@H](CCN)NC(=O)[C@H](CCN)NC1=O` [Compound 81] (X64-[Dab]T[Dap][Dab][Dab][dL][Abu][Dab][Dab]T; lactam 4-C), the Minimum inhibitory concentration in experiment [1] turned out to be 2 µg/mL (≈ 1.73 µM); in experiment [2], 1 µg/mL (≈ 0.863 µM); in experiment [3] it was 0.5 µg/mL (≈ 0.431 µM); in [4] it was 0.25 µg/mL (≈ 0.216 µM); in experiment [5] it was 0.5 µg/mL (≈ 0.431 µM); in experiment [6] it was 0.5 µg/mL (≈ 0.431 µM). The Minimum inhibitory concentration is 2 µg/mL (≈ 1.73 µM) in experiment [7]; 0.5 µg/mL (≈ 0.431 µM) in experiment [8]; 4 µg/mL (≈ 3.45 µM) in experiment [9]; less than 0.125 µg/mL in experiment [10]; less than 0.125 µg/mL in [11]; 1 µg/mL (≈ 0.863 µM) in experiment [12]. This molecule also returned a Minimum inhibitory concentration in [13] of less than 0.125 µg/mL.

Consider `CC[C@@H]1NC(=O)[C@@H](CC(C)C)NC(=O)[C@H](CCN)NC(=O)[C@@H](NC(=O)[C@H](CN)NC(=O)[C@@H](NC(=O)[C@H](CCN)NC(=O)c2cncc(Br)c2)[C@@H](C)O)CCNC(=O)[C@H]([C@@H](C)O)NC(=O)[C@H](CCN)NC(=O)[C@H](CCN)NC1=O` [Compound 23] (X33-[Dab]T[Dap][Dab][Dab][dL][Abu][Dab][Dab]T; lactam 4-C), for which the Minimum inhibitory concentration in [1] was found to be 0.5 µg/mL (≈ 0.427 µM); in experiment [2], 0.25 µg/mL (≈ 0.213 µM); in experiment [3] it was 0.25 µg/mL (≈ 0.213 µM); in experiment [4] it was 4 µg/mL (≈ 3.42 µM); in [5] it was 0.25 µg/mL (≈ 0.213 µM); in experiment [6] it was 0.5 µg/mL (≈ 0.427 µM). Moreover, the Minimum inhibitory concentration in [7] is 2 µg/mL (≈ 1.71 µM); in experiment [8], 0.5 µg/mL (≈ 0.427 µM); in experiment [9], 0.5 µg/mL (≈ 0.427 µM); in experiment [10], 0.5 µg/mL (≈ 0.427 µM); in experiment [11] it was 0.5 µg/mL (≈ 0.427 µM); in experiment [12], 0.5 µg/mL (≈ 0.427 µM). This molecule also showed a Minimum inhibitory concentration in [13] of less than 0.125 µg/mL.

In the case of `CC[C@@H]1NC(=O)[C@@H](CC(C)C)NC(=O)[C@H](CCN)NC(=O)[C@@H](NC(=O)[C@H](CN)NC(=O)[C@@H](NC(=O)[C@H](CCN)NC(=O)c2sc(Br)cc2Br)[C@@H](C)O)CCNC(=O)[C@H]([C@@H](C)O)NC(=O)[C@H](CCN)NC(=O)[C@H](CCN)NC1=O` [Compound 85] (X50-[Dab]T[Dap][Dab][Dab][dL][Abu][Dab][Dab]T; lactam 4-C), the Minimum inhibitory concentration in experiment [1] is less than 0.125 µg/mL; in experiment [2], 0.25 µg/mL (≈ 0.199 µM); in experiment [3], 0.25 µg/mL (≈ 0.199 µM); in experiment [4], less than 0.125 µg/mL; in [5] it was 0.25 µg/mL (≈ 0.199 µM); in experiment [6], 0.25 µg/mL (≈ 0.199 µM). Further, the Minimum inhibitory concentration in experiment [7] is less than 0.125 µg/mL; in experiment [8], less than 0.125 µg/mL; in experiment [9], 0.25 µg/mL (≈ 0.199 µM); in experiment [10] it was 0.25 µg/mL (≈ 0.199 µM); in experiment [11], 0.25 µg/mL (≈ 0.199 µM); in experiment [12], 0.5 µg/mL (≈ 0.398 µM). In [13], this molecule had a Minimum inhibitory concentration of less than 0.125 µg/mL.

For the molecule `CC[C@@H]1NC(=O)[C@@H](CC(C)C)NC(=O)[C@H](CCN)NC(=O)[C@@H](NC(=O)[C@H](CN)NC(=O)[C@@H](NC(=O)[C@H](CCN)NC(=O)c2cc(Br)sc2Br)[C@@H](C)O)CCNC(=O)[C@H]([C@@H](C)O)NC(=O)[C@H](CCN)NC(=O)[C@H](CCN)NC1=O` [Compound 76] (X67-[Dab]T[Dap][Dab][Dab][dL][Abu][Dab][Dab]T; lactam 4-C), the Minimum inhibitory concentration is 0.25 µg/mL (≈ 0.199 µM) in [1]; 0.25 µg/mL (≈ 0.199 µM) in [2]; less than 0.125 µg/mL in experiment [3]; less than 0.125 µg/mL in experiment [4]; 0.25 µg/mL (≈ 0.199 µM) in [5]; 0.25 µg/mL (≈ 0.199 µM) in experiment [6]. The Minimum inhibitory concentration was less than 0.125 µg/mL in experiment [7]; less than 0.125 µg/mL in experiment [8]; less than 0.125 µg/mL in experiment [9]; 0.25 µg/mL (≈ 0.199 µM) in experiment [10]; less than 0.125 µg/mL in experiment [11]; 0.5 µg/mL (≈ 0.398 µM) in experiment [12]. The Minimum inhibitory concentration in experiment [13] is less than 0.125 µg/mL.

For `CC[C@@H]1NC(=O)[C@@H](CC(C)C)NC(=O)[C@H](CCN)NC(=O)[C@@H](NC(=O)[C@H](CN)NC(=O)[C@@H](NC(=O)[C@H](CCN)NC(=O)c2csc(Br)c2)[C@@H](C)O)CCNC(=O)[C@H]([C@@H](C)O)NC(=O)[C@H](CCN)NC(=O)[C@H](CCN)NC1=O` [Compound 101] (X70-[Dab]T[Dap][Dab][Dab][dL][Abu][Dab][Dab]T; lactam 4-C), the Minimum inhibitory concentration in experiment [1] was 0.5 µg/mL (≈ 0.425 µM); in experiment [2], 0.25 µg/mL (≈ 0.213 µM); in [3] it was 0.5 µg/mL (≈ 0.425 µM); in experiment [4] it was 0.5 µg/mL (≈ 0.425 µM); in experiment [5], 0.25 µg/mL (≈ 0.213 µM); in experiment [6], 0.25 µg/mL (≈ 0.213 µM). The Minimum inhibitory concentration in experiment [7], in [8], in experiment [9], in experiment [10], in experiment [11] and in experiment [12] was 0.5 µg/mL (≈ 0.425 µM) throughout. In addition, the Minimum inhibitory concentration in [13] amounted to 1 µg/mL (≈ 0.85 µM).

Turning to `CCc1ccc(C(=O)N[C@@H](CCN)C(=O)N[C@H](C(=O)N[C@@H](CN)C(=O)N[C@H]2CCNC(=O)[C@H]([C@@H](C)O)NC(=O)[C@H](CCN)NC(=O)[C@H](CCN)NC(=O)[C@H](CC)NC(=O)[C@@H](CC(C)C)NC(=O)[C@H](CCN)NC2=O)[C@@H](C)O)cn1` [Compound 41] (X26-[Dab]T[Dap][Dab][Dab][dL][Abu][Dab][Dab]T; lactam 4-C), the Minimum inhibitory concentration was 2 µg/mL (≈ 1.79 µM) in experiment [1]; 0.25 µg/mL (≈ 0.223 µM) in experiment [2]; less than 0.125 µg/mL in experiment [3]; 0.25 µg/mL (≈ 0.223 µM) in experiment [4]; less than 0.125 µg/mL in [5]; 0.25 µg/mL (≈ 0.223 µM) in experiment [6]. Moreover, the Minimum inhibitory concentration is 2 µg/mL (≈ 1.79 µM) in experiment [7]; less than 0.125 µg/mL in [8]; 2 µg/mL (≈ 1.79 µM) in experiment [9]; less than 0.125 µg/mL in experiment [10]; less than 0.125 µg/mL in experiment [11]; 0.5 µg/mL (≈ 0.446 µM) in [12]. This molecule displayed a Minimum inhibitory concentration in [13] of less than 0.125 µg/mL.
